Data on six compounds can be found in US11572399B2, “Long-acting GIP peptide analogues” (University of Copenhagen, priority 2017, dated 2023).

As a reminder, the EC50 is the midpoint of the concentration-response curve. In general, Emax refers to the size of the effect at its maximum, as opposed to the concentration needed.

Where two headings read alike, the source gives them in different places. Numbered stars: 1 amine (or outer) side, 2 acyl side, 3 side chain; on linkers, the order of the positions; unused ones are H or OH. Side chains are listed from the residue outwards. Peptide text beside a SMILES is read from it. * marks the point of attachment. γGlu = O=C(O)[C@H](CCC(=O)[*:2])N[*:1]; Palmitoyl = CCCCCCCCCCCCCCCC(=O)*; AEEA = NCCOCCOCC(=O)O

The target in experiment [1] is T1, human GIP receptor (Homo sapiens, UniProt P48546).
T1 construct: host or cells: COS-7, transient transfection (calcium phosphate), cDNA in pCMV-Script
T1 sequence (P48546 22-466): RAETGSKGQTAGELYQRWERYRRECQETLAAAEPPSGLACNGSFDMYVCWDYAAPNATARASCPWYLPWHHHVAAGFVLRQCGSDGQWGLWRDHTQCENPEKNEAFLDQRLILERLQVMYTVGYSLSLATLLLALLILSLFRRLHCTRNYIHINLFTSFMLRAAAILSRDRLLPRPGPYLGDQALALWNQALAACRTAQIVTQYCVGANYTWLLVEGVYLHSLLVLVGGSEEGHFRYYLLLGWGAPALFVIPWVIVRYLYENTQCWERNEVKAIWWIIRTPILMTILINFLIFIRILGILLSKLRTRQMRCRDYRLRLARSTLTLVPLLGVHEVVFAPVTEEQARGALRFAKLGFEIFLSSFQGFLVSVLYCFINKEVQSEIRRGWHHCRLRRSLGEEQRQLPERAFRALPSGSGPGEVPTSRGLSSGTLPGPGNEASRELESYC
As to the kind of experiment: cAMP accumulation assay, antagonism of a GIP-mediated cAMP response (50-80% of max). It counts as cell-based. Particulars: Table 5. As to the method:
The day after, the cells were washed twice with Hepes buffered saline (HBS) buffer and incubated with HBS and 1 mM 3-isobutyl-1-methylxanthine (IBMX) for 30 min at 37° C. […] The HitHunter™ cAMP XS assay (DiscoveRx) was carried out according to the manufacturer's instructions.
(Changes in cAMP serve as a functional read-out for many G protein-coupled receptors.)

Experiment [2] has as its target T1, human GIP receptor. The experiment in a line: 125I-human GIP competition binding assay, in the presence and absence of 2% HSA.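 On all read-outs here: nonspecific binding taken as radioligand bound to untransfected cells, IC50 obtained from nonlinear regression fits.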 The conditions noted are these: for Binding fold (paired): fold decrease in affinity compared to GIP(3-30)NH2.
For experiment [3], the target named is T1, human GIP receptor. The experiment in a line: cAMP accumulation assay, agonism (ligand alone). It counts as cell-based. The conditions noted are these: COS-7 cells, Table 1; for EC50: read-out: cAMP agonism nM (EC50); for cAMP agonism Emax: intrinsic cAMP activity; for Emax: COS-7, intrinsic cAMP activity.
Setting [4] is: Table 3b, initial data, read-out: Binding IC50.
[5] abbreviates: heterologous competition binding, transiently transfected COS-7 cells expressing the human GIP receptor, read-out: Binding.

In the case of `CCCCCCCCCCCCCCCC(=O)NCCOCCOCC(=O)N[C@@H](CCC(=O)NCCCC[C@H](NC(=O)[C@@H](NC(=O)[C@H](CCCCN)NC(=O)[C@H](CC(=O)O)NC(=O)[C@H](CCSC)NC(=O)[C@H](C)NC(=O)[C@@H](NC(=O)[C@H](CO)NC(=O)[C@H](Cc1ccc(O)cc1)NC(=O)[C@H](CC(=O)O)NC(=O)[C@H](CO)NC(=O)[C@@H](NC(=O)[C@H](Cc1ccccc1)NC(=O)[C@@H](NC(=O)CNC(=O)[C@@H](N)CCC(=O)O)[C@@H](C)O)[C@@H](C)CC)[C@@H](C)CC)[C@@H](C)CC)C(=O)N[C@@H](CCC(N)=O)C(=O)N[C@@H](CCC(N)=O)C(=O)N[C@@H](CC(=O)O)C(=O)N[C@@H](Cc1ccccc1)C(=O)N[C@H](C(=O)N[C@@H](CC(N)=O)C(=O)N[C@@H](Cc1c[nH]c2ccccc12)C(=O)N[C@@H](CC(C)C)C(=O)N[C@@H](CC(C)C)C(=O)N[C@@H](C)C(=O)N[C@@H](CCC(N)=O)C(=O)N[C@@H](CCCCN)C(N)=O)C(C)C)C(=O)O` [AT167, [hGIP(3-30)NH2[H18K]-C16/18+y-glutamic acid+8-amino-3,6-dioxaoctanoic acid]] (H-EGTFISDYSIAMDKIK([γGlu-AEEA-Palmitoyl])QQDFVNWLLAQK-NH2), the “Fold change from GIP(3-30)NH2 (increase in potency)” value on human GIP receptor [1] was determined as 14.8 fold.
For `CCCCCCCCCCCC(=O)N[C@@H](CCC(=O)O)C(=O)NCC(=O)N[C@H](C(=O)N[C@@H](Cc1ccccc1)C(=O)N[C@H](C(=O)N[C@@H](CO)C(=O)N[C@@H](CC(=O)O)C(=O)N[C@@H](Cc1ccc(O)cc1)C(=O)N[C@@H](CO)C(=O)N[C@H](C(=O)N[C@@H](C)C(=O)N[C@@H](CCSC)C(=O)N[C@@H](CC(=O)O)C(=O)N[C@@H](CCCCN)C(=O)N[C@H](C(=O)N[C@@H](Cc1c[nH]cn1)C(=O)N[C@@H](CCC(N)=O)C(=O)N[C@@H](CCC(N)=O)C(=O)N[C@@H](CC(=O)O)C(=O)N[C@@H](Cc1ccccc1)C(=O)N[C@H](C(=O)N[C@@H](CC(N)=O)C(=O)N[C@@H](Cc1c[nH]c2ccccc12)C(=O)N[C@@H](CC(C)C)C(=O)N[C@@H](CC(C)C)C(=O)N[C@@H](C)C(=O)N[C@@H](CCC(N)=O)C(=O)N[C@@H](CCCCN)C(N)=O)C(C)C)[C@@H](C)CC)[C@@H](C)CC)[C@@H](C)CC)[C@@H](C)O` [AT101, [hGIP(3-30)NH2—C12/3]], at human GIP receptor [2] (setting [4]), the IC50 was found to be 9.9 nM. The “Binding fold (paired)” value at human GIP receptor [2] (Table 3b) amounted to 0.7 fold. The IC50 at human GIP receptor [2] (setting [5]) came to 9.9 nM. On human GIP receptor [3], the EC50 came out at 0.7 nM and the “cAMP agonism Emax” value amounted to 62%.
Consider `CCCCCCCCCCCCCCCC(=O)NCCCC[C@H](NC(=O)[C@H](CC(=O)O)NC(=O)[C@H](CCSC)NC(=O)[C@H](C)NC(=O)[C@@H](NC(=O)[C@H](CO)NC(=O)[C@H](Cc1ccc(O)cc1)NC(=O)[C@H](CC(=O)O)NC(=O)[C@H](CO)NC(=O)[C@@H](NC(=O)[C@H](Cc1ccccc1)NC(=O)[C@@H](NC(=O)CNC(=O)[C@@H](N)CCC(=O)O)[C@@H](C)O)[C@@H](C)CC)[C@@H](C)CC)C(=O)N[C@H](C(=O)N[C@@H](Cc1c[nH]cn1)C(=O)N[C@@H](CCC(N)=O)C(=O)N[C@@H](CCC(N)=O)C(=O)N[C@@H](CC(=O)O)C(=O)N[C@@H](Cc1ccccc1)C(=O)N[C@H](C(=O)N[C@@H](CC(N)=O)C(=O)N[C@@H](Cc1c[nH]c2ccccc12)C(=O)N[C@@H](CC(C)C)C(=O)N[C@@H](CC(C)C)C(=O)N[C@@H](C)C(=O)N[C@@H](CCC(N)=O)C(=O)N[C@@H](CCCCN)C(N)=O)C(C)C)[C@@H](C)CC` [AT105, [hGIP(3-30)NH2—C16/16]], for which the IC50 at human GIP receptor [2] (setting [4]) and on human GIP receptor [2] (setting [5]) was 522 nM throughout. The compound further came in with an Emax on human GIP receptor [3] of 34%.
For the compound `CCCCCCCCCCCC(=O)NCCCC[C@H](NC(=O)[C@H](CC(=O)O)NC(=O)[C@H](CCSC)NC(=O)[C@H](C)NC(=O)[C@@H](NC(=O)[C@H](CO)NC(=O)[C@H](Cc1ccc(O)cc1)NC(=O)[C@H](CC(=O)O)NC(=O)[C@H](CO)NC(=O)[C@@H](NC(=O)[C@H](Cc1ccccc1)NC(=O)[C@@H](NC(=O)CNC(=O)[C@@H](N)CCC(=O)O)[C@@H](C)O)[C@@H](C)CC)[C@@H](C)CC)C(=O)N[C@H](C(=O)N[C@@H](Cc1c[nH]cn1)C(=O)N[C@@H](CCC(N)=O)C(=O)N[C@@H](CCC(N)=O)C(=O)N[C@@H](CC(=O)O)C(=O)N[C@@H](Cc1ccccc1)C(=O)N[C@H](C(=O)N[C@@H](CC(N)=O)C(=O)N[C@@H](Cc1c[nH]c2ccccc12)C(=O)N[C@@H](CC(C)C)C(=O)N[C@@H](CC(C)C)C(=O)N[C@@H](C)C(=O)N[C@@H](CCC(N)=O)C(=O)N[C@@H](CCCCN)C(N)=O)C(C)C)[C@@H](C)CC` [AT154, [hGIP(3-30)NH2—C12/16]], on human GIP receptor [2] (setting [5]), the IC50 was found to be 27 nM. For the same compound, at human GIP receptor [3], the “cAMP agonism Emax” value came out at 0%.
Regarding `CCCCCCCCCCCCCCCC(=O)NCCCC[C@H](NC(=O)[C@H](CC(=O)O)NC(=O)[C@H](CCSC)NC(=O)[C@H](C)NC(=O)[C@@H](NC(=O)[C@H](CO)NC(=O)[C@H](Cc1ccc(O)cc1)NC(=O)[C@H](CC(=O)O)NC(=O)[C@H](CO)NC(=O)[C@@H](NC(=O)[C@H](Cc1ccccc1)NC(=O)[C@@H](NC(=O)CNC(=O)[C@@H](N)CCC(=O)O)[C@@H](C)O)[C@@H](C)CC)[C@@H](C)CC)C(=O)N[C@H](C(=O)N[C@@H](CCCCN)C(=O)N[C@@H](CCC(N)=O)C(=O)N[C@@H](CCC(N)=O)C(=O)N[C@@H](CC(=O)O)C(=O)N[C@@H](Cc1ccccc1)C(=O)N[C@H](C(=O)N[C@@H](CC(N)=O)C(=O)N[C@@H](Cc1c[nH]c2ccccc12)C(=O)N[C@@H](CC(C)C)C(=O)N[C@@H](CC(C)C)C(=O)N[C@@H](C)C(=O)N[C@@H](CCC(N)=O)C(=O)N[C@@H](CCCCN)C(N)=O)C(C)C)[C@@H](C)CC` [AT163, [hGIP(3-30)NH2[H18K]-C16/16]] (H-EGTFISDYSIAMDK(Palmitoyl)IKQQDFVNWLLAQK-NH2; N-terminus assumed), the IC50 at human GIP receptor [2] (setting [5]) came to 205 nM. Besides, the Emax at human GIP receptor [3] came to 0%.
For `CCCCCCCCCCCC(=O)NCCCC[C@H](NC(=O)[C@H](CC(=O)O)NC(=O)[C@H](CCSC)NC(=O)[C@H](C)NC(=O)[C@@H](NC(=O)[C@H](CO)NC(=O)[C@H](Cc1ccc(O)cc1)NC(=O)[C@H](CC(=O)O)NC(=O)[C@H](CO)NC(=O)[C@@H](NC(=O)[C@H](Cc1ccccc1)NC(=O)[C@@H](NC(=O)CNC(=O)[C@@H](N)CCC(=O)O)[C@@H](C)O)[C@@H](C)CC)[C@@H](C)CC)C(=O)N[C@H](C(=O)N[C@@H](Cc1c[nH]cn1)C(=O)N[C@@H](CCC(N)=O)C(=O)N[C@@H](CCC(N)=O)C(=O)N[C@@H](CC(=O)O)C(=O)N[C@@H](Cc1ccccc1)C(=O)N[C@H](C(=O)N[C@@H](CC(N)=O)C(=O)N[C@@H](Cc1c[nH]c2ccccc12)C(=O)N[C@@H](CC(C)C)C(=O)N[C@@H](CC(C)C)C(=O)N[C@@H](C)C(=O)N[C@@H](CCC(N)=O)C(=O)N[C@@H](CCCCN)C(N)=O)C(C)C)[C@@H](C)CC` [AT102, [hGIP(3-30)NH2—C12/16]], the IC50 on human GIP receptor [2] (setting [4]) was determined as 59.1 nM. At human GIP receptor [2] (Table 3b), the “Binding fold (paired)” value was 6.1 fold. Besides, at human GIP receptor [2] (setting [5]), the IC50 was determined as 59.1 nM. In addition, on human GIP receptor [3], the EC50 came to 0.7 nM and the “cAMP agonism Emax” value was 66%.
